Measurements taken from ChEMBL document CHEMBL1158498, “Synthesis of 4'-ester analogs of resveratrol and their evaluation in malignant melanoma and pancreatic cell lines” (Bioorg Med Chem Lett, 2010).
Activity calls are given as the source filed them. The calls are words filed in the database; no cut-off is given here.

Key:
DM443 = assay: Cytotoxicity against human DM443 cells at 50 uM after 72 hrs by WST-1 assay; format: functional, cell-based
DM738 = assay: Cytotoxicity against human DM738 cells at 50 uM after 72 hrs by WST-1 assay; format: functional, cell-based
PANC-1 [1] = assay: Cytotoxicity against human PANC1 cells at 50 uM after 72 hrs by WST-1 assay in presence of gemcitabine; format: functional, cell-based
NHDF = assay: Cytotoxicity against human NHDF cells at 50 uM after 72 hrs by WST-1 assay; format: cell-based
PANC-1 [2] = assay: Cytotoxicity against human PANC1 cells at 50 uM after 72 hrs by WST-1 assay; format: functional, cell-based

CCCC(=O)Oc1ccc(/C=C/c2cc(O)cc(O)c2)cc1
Activity (DM443): Active | Activity (DM738): Active | Activity (PANC-1 [1]): Not toxic

O=C(CCCCC(=O)Oc1ccc(/C=C/c2cc(O)cc(O)c2)cc1)Oc1ccc(/C=C/c2cc(O)cc(O)c2)cc1
Activity (NHDF): Non-toxic | Activity (PANC-1 [1]): Not toxic

CC(=O)Oc1ccc(/C=C/c2cc(O)cc(O)c2)cc1
Activity (NHDF): Non-toxic | Activity (PANC-1 [2]): Active

CC(=O)Oc1cc(O)cc(/C=C/c2ccc(O)cc2)c1
Activity (PANC-1 [1]): Not toxic

Oc1cc(F)cc(/C=C/c2ccc(F)cc2)c1
Activity (DM443): Active | Activity (DM738): Active | Activity (PANC-1 [1]): Not toxic

CCCCCCCCCCCCCCCC(=O)Oc1ccc(/C=C/c2cc(O)cc(O)c2)cc1
Activity (PANC-1 [1]): Not toxic

CC(C)C(=O)Oc1ccc(/C=C/c2cc(O)cc(O)c2)cc1
Activity (DM443): Active | Activity (DM738): Active | Activity (PANC-1 [1]): Not toxic

CCCCCC(=O)Oc1ccc(/C=C/c2cc(O)cc(O)c2)cc1
Activity (DM443): Active | Activity (DM738): Active | Activity (PANC-1 [1]): Not toxic

Oc1ccc(/C=C/c2cc(O)cc(O)c2)cc1
Activity (PANC-1 [1]): Not toxic

CC(=O)Oc1cc(/C=C/c2ccc(O)cc2)cc(OC(C)=O)c1
Activity (PANC-1 [1]): Not toxic

CC(=O)Oc1ccc(/C=C/c2cc(OC(C)=O)cc(OC(C)=O)c2)cc1
Activity (PANC-1 [2]): Active | Activity (PANC-1 [1]): Not toxic
